The text below walks through data of patent publication US20200299671A1, “IMMOBILIZED MULTI-ENZYMATIC HALOGENATION SYSTEM” (priority 2019, published 2020).

The test system of data set [1] is PltM K87A. The experiment in a line: Cell-based activity assay (Assay 3), PltM K87A. On the set-up: species or system E. coli BL21 (DE3). Conditions: cultures expressing PltM K87A. The method, then: E. coli BL21 (DE3) cells were transformed with ppltM-pET28a, ppltMK87A-pET28a, ppltML111Y-pET28a, ppltMS404Y-pET28a, and ppltA-pET28a. The ppltA-pET28a plasmid overexpressing the halogenase PltA whose substrate is pyrrolyl-S-PltL (a peptidyl carrier protein-linked pyrrole) was used as a negative control. Five colonies from each transformant were cultured in 2×500 mL of LB medium (for ppltM-pET28a, ppltML111Y-pET28a, and ppltMS404Y-pET28a) and 1×500 mL of LB medium (for ppltMK87A-pET28a and ppltA-pET28a) with 50 μg/mL kanamycin at 37° C. and 200 rpm until attenuance of 0.2 at 600 nm. The cultures were then moved to 25° C. until attenuance of 0.5. Protein expression was induced by adding 0.2 mM IPTG to all […] flasks, and the cultures were incubated with shaking for 1 h. 12.5 μg/mL of compound 1 was added to 1×500 mL of LB medium containing ppltM-pET28a, ppltMK87A-pET28a, ppltML111Y-pET28a, ppltMS404Y-pET28a, and ppltA-pET28a. Compound 1 was not added to the three remaining flasks (negative controls). After additional incubation for 20 h, the cells were pelleted at 5,000 g for 10 min, and the supernatant was collected. The supernatant was extracted with EtOAc (3×330 mL), which was dried in vacuo. […]
The halogenation reaction products were analyzed by HPLC or LC-MS by injecting 10 μL of each sample. […]
For HPLC analysis, the molecules were observed by absorbance at λ=275 nm as described above. […]

Data set [2] deals with T1, PltM (Pseudomonas protegens, UniProt Q4KCZ3). The experiment in a line: Optimized in vitro PltM halogenation assay (PltM, SsuE, GDH), overnight overall yield by HPLC. Conditions: optimized in vitro conditions. The format is biochemical. The procedure:
To increase production of halogenated molecules and decrease the amount of NADPH required, the above in vitro assay was optimized by using an additional enzyme, glucose dehydrogenase (GDH). […] The overall yield of halogenation products was determined for reactions run overnight for several substrates (Table 8). Conversion of the substrate to halogenated products was monitored by HPLC at λ=275-320 nm, where the absorbance of molecules is not affected by halogenation, and quantified as fraction of reaction species (%).
The time course experiments were performed in duplicate. Compound 1 was unstable under these optimized conditions, and it was not tested. The in vitro analysis of K87A mutant was performed overnight in 100 μL reaction mixture by using the compound 11 as a substrate. Wild-type PltM was used as a positive control, and no enzyme reaction was used as a negative control. In all above reactions, the compounds were extracted with EtOAc (4×100 μL) and dried under gentle air flow.
(§1) The halogenation reaction products were analyzed by HPLC or LC-MS by injecting 10 μL of each sample. The compounds were separated by Reversed-phase HPLC at the flow rate of 0.2 mL/min by using the following program: eluent A=H2O; eluent B=MeCN; gradient=2% B for 5 min, increase to 100% B over a 30 min period, stay at 100% B for 9 min, decrease to 2% B over a 1 min period, and re-equilibrate the column at 2% B for 30 min.
(§2) For HPLC analysis, the molecules were observed by absorbance at λ=275 nm as described above. As necessary, the following mass spectrometer was operated in negative and positive modes with the following parameters: For negative mode, mass range, 80-600 m/z in profile mode; temperature, 550° C. and ion spray voltage floating, −4500 V, and for positive mode, mass range, 80-600 m/z in profile mode; temperature, 550° C. and ion spray voltage floating, 4500 V. The presence of each compound was analyzed by extracted ion chromatograph (XIC) with the expected mass ±0.05 Da for Assay 1 and Assay 2 and ±0.005 Da for Assay 3 (FIGS. 2A-C, 8-13, and 17-37; Tables 3-4 and 7).

Data set [3] concerns the target T1, PltM. Kind of data set: Halogenating competition assays in 1:1 or 10:1 mixtures of two halide salts (Assay 2a-2e), LC-MS. The format is biochemical. The procedure:
To establish if hetero-dihalogenation by PltM could be observed, halogenating competition assays in 1:1 or 10:1 mixtures of two different halide salts were performed (Assay 2). The reactions contained the same components as above except single halide salts were replaced with either a 1:1/NaCl:NaBr (Assay 2a), 1:1/NaCl:NaI (Assay 2b), or 1:1/NaBr:NaI (Assay 2c) mixtures (100 mM of each halide). The reactions were initiated by adding NADPH under N2. A 1:1/NaCl:NaBr reaction was also performed with 200 mM of each halide to test occurrence of homo-di- or hetero-chlorination/bromination, and 10:1/NaCl:NaI (Assay 2d) and 10:1/NaBr:NaI (Assay 2e) mixtures with 200 mM of NaCl or NaBr and 20 mM of NaI were tested to check whether chlorination or bromination could occur in the presence of iodide and whether iodination can occur with chlorination or bromination to yield a C1,I-substrate or Br,I-substrate. The reactions were incubated and processed as described above in Assay 1.
as §1, §2

T1 sequence (Q4KCZ3 entry or part of it): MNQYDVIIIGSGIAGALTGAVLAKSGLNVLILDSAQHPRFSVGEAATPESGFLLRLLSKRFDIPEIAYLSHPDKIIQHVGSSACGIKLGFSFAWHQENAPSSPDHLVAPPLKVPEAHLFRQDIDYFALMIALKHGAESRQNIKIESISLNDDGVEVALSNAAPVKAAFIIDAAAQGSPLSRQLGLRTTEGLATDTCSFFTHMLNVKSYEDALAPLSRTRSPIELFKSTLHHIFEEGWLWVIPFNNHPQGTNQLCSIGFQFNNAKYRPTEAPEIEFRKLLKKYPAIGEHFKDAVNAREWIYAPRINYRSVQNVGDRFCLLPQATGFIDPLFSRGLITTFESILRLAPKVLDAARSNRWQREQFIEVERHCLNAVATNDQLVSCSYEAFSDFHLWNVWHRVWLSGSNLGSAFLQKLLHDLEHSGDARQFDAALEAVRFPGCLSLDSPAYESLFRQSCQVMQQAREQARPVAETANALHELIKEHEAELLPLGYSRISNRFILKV

Consider `Oc1cc(O)cc(O)c1` [Compound 1, phloroglucinol], for which, in data set [1], the “halogenation in fermentation culture” value is listed as “No halogenated product was observed”. Further, the “stability under optimized reaction conditions” value in data set [2] is “unstable”. For the same compound, the “products of competitive halogenation” value in data set [3] (10-fold molar excess of NaBr over NaI) was “mono-brominated, mono-iodinated, and diiodinated 1 were identified”; in data set [3] (10-fold molar excess of NaCl over NaI), “all possible mono- and dihalogenated products were identified, including chloro-iodinated 1”; in data set [3] (two halides (Cl/Br, Cl/I or Br/I) at equimolar ratios) it was “mono-halogenated products of either halogen and diiodinated 1 where NaI was used”.
